Read-outs that look alike come from different tables or passages of the source.
Assays:
mGlu2 receptor = mGlu2 receptor (Rattus norvegicus (Rat), UniProt P31421); assay: mGlu2 in vitro GIRK thallium flux assay; type: cell-based; conditions: NAM, HEK-293 GIRK cells
Procedure: All cell culture reagents were purchased from Invitrogen Corp. (Carlsbad, Calif.) unless otherwise noted. Compound activity at the group II (mGlu2 and mGlu3) mGlus was assessed using thallium flux through GIRK channels. Briefly, cells were plated into 384-well, black-walled, clear-bottomed poly-D-lysine-coated plates at a density of 15,000 cells/20 μL/well in DMEM containing 10% dialyzed FBS, 20 mM HEPES, and 100 units/mL penicillin/streptomycin (assay media). Plated cells were incubated overnight at 37° C. in the presence of 5% CO2. […] Cells were incubated for 1 h at room temperature, and the dye exchanged to assay buffer using an ELX405, leaving 20 μL/well. Test compounds were diluted to 2 times their final desired concentration in assay buffer (0.3% DMSO final concentration). […] Cell plates and compound plates were loaded onto a kinetic imaging plate reader (FDSS 6000 or 7000; Hamamatsu Corporation, Bridgewater, N.J.). Appropriate baseline readings were taken (10 images at 1 Hz; excitation, 470±20 nm; emission, 540±30 nm) and test compounds were added in a 20 μL volume and incubated for either 2.5 min or 60 min as indicated before the addition of 10 μL of thallium buffer with or without agonist. After the addition of agonist, data were collected for approximately an additional 2.5 min. Data were analyzed using Excel (Microsoft Corp, Redmond, Wash.). The slope of the fluorescence increase beginning 5 s after thallium/agonist addition and ending 15 s after thallium/agonist addition was calculated, corrected to vehicle and maximal agonist control slope values, and plotted in using either XLfit (ID Business Solutions Ltd) or Prism software (GraphPad Software, San Diego, Calif.) to generate concentration-response curves. Potencies were calculated from fits using a four-point parameter logistic equation. For concentration-response curve experiments, compounds were serially diluted 1:3 into 10 point concentration response curves and were transferred to daughter plates using an Echo acoustic plate reformatter (Labcyte, Sunnyvale, Calif.). Test compounds were applied and followed by EC80 concentrations of glutamate.

mGlu3 receptor = mGlu3 receptor (Rattus norvegicus (Rat), UniProt P31422); assay: mGlu3 in vitro GIRK thallium flux assay; type: cell-based; conditions: NAM; test compound incubated 2.5 min before EC80 glutamate; HEK-293 GIRK cells
Procedure: All cell culture reagents were purchased from Invitrogen Corp. (Carlsbad, Calif.) unless otherwise noted. Compound activity at the group II (mGlu2 and mGlu3) mGlus was assessed using thallium flux through GIRK channels. Briefly, cells were plated into 384-well, black-walled, clear-bottomed poly-D-lysine-coated plates at a density of 15,000 cells/20 μL/well in DMEM containing 10% dialyzed FBS, 20 mM HEPES, and 100 units/mL penicillin/streptomycin (assay media). Plated cells were incubated overnight at 37° C. in the presence of 5% CO2. […] Cells were incubated for 1 h at room temperature, and the dye exchanged to assay buffer using an ELX405, leaving 20 μL/well. Test compounds were diluted to 2 times their final desired concentration in assay buffer (0.3% DMSO final concentration). […] Cell plates and compound plates were loaded onto a kinetic imaging plate reader (FDSS 6000 or 7000; Hamamatsu Corporation, Bridgewater, N.J.). Appropriate baseline readings were taken (10 images at 1 Hz; excitation, 470±20 nm; emission, 540±30 nm) and test compounds were added in a 20 μL volume and incubated for either 2.5 min or 60 min as indicated before the addition of 10 μL of thallium buffer with or without agonist. […] Data were analyzed using Excel (Microsoft Corp, Redmond, Wash.). […] Potencies were calculated from fits using a four-point parameter logistic equation. […]

R6/2 mice = conditions: daily subcutaneous 20 mg/kg (MTD) beginning at 4 weeks; cited from earlier work
[1] = test system: cultured spinal cord astrocytes; conditions: astrocytes from wild-type and mGlu2 knockout mice, not mGlu3 knockout; cited from earlier work
[2] = test system: wild-type and mGlu2 knockout mice; conditions: acute 0.5, 1 or 5 mg/kg, i.p.; not in mGlu3 knockout mice; cited from earlier work
SOD1G93A mice = conditions: continuous treatment 1 or 5 mg/kg/day; cited from earlier work
reserpine-treated rat = conditions: cited from earlier work
Male Wistar rats = assay: Forced Swim Test (FST); type: in vivo; conditions: rat, FIG. 1
Procedure: Male Wistar rats (Charles River, Hollister, Calif.), weighing 175-225 g (Charles River, Portage, Ind.) used for the forced swim test study were housed in pairs with food and water available ad libitum, except during testing, in a temperature and humidity controlled vivarium (21° C.). Rats were maintained on a 12-hour reverse light-dark cycle with lights on at 6 pm. All experimental procedures occurred during the dark cycle, were approved by the Institutional Animal Care and Use Committee of the Scripps Research Institute, and were in accordance with the Association for the Assessment and Accreditation of Laboratory Animal Care (AAALAC) guidelines. […]
After the habituation swim and 24 hours prior to the test swim, rats were administered one of three doses of a mGlu2/3 NAM, with doses and pretreatment time based on maximal brain penetration as determined by PK studies for each compound. Blood and brain tissue were collected immediately after the FST and the PK properties of each compound were analyzed together with FST behavior. […] Twenty-four hours after their first exposure, the animals were again placed in the swim apparatus for 5 min, and behaviors were monitored from above by video camera for subsequent analysis. The rater of the behavioral patterns was blind with respect to the experimental conditions being scored. […]

Sequence of mGlu2 receptor (P31421 19-872): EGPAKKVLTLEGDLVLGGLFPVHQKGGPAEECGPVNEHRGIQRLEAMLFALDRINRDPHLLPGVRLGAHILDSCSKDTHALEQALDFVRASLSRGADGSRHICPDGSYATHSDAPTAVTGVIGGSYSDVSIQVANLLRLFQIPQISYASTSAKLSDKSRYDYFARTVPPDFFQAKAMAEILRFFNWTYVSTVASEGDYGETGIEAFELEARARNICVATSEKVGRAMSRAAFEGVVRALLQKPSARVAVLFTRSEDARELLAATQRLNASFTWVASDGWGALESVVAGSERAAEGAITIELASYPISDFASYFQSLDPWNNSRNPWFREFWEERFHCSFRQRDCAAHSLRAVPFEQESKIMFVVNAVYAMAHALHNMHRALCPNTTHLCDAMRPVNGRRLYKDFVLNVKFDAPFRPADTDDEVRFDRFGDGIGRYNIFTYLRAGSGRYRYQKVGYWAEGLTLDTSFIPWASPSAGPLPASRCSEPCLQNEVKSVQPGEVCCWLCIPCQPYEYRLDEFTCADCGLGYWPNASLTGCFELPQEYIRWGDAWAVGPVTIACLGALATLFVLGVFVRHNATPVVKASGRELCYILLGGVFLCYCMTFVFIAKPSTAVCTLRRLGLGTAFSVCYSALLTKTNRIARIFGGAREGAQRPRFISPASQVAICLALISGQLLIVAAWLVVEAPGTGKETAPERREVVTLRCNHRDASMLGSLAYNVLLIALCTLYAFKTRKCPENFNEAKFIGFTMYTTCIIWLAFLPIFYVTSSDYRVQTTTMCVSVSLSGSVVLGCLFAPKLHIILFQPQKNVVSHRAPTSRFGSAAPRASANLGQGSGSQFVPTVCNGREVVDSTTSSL
Sequence of mGlu3 receptor (P31422 23-879): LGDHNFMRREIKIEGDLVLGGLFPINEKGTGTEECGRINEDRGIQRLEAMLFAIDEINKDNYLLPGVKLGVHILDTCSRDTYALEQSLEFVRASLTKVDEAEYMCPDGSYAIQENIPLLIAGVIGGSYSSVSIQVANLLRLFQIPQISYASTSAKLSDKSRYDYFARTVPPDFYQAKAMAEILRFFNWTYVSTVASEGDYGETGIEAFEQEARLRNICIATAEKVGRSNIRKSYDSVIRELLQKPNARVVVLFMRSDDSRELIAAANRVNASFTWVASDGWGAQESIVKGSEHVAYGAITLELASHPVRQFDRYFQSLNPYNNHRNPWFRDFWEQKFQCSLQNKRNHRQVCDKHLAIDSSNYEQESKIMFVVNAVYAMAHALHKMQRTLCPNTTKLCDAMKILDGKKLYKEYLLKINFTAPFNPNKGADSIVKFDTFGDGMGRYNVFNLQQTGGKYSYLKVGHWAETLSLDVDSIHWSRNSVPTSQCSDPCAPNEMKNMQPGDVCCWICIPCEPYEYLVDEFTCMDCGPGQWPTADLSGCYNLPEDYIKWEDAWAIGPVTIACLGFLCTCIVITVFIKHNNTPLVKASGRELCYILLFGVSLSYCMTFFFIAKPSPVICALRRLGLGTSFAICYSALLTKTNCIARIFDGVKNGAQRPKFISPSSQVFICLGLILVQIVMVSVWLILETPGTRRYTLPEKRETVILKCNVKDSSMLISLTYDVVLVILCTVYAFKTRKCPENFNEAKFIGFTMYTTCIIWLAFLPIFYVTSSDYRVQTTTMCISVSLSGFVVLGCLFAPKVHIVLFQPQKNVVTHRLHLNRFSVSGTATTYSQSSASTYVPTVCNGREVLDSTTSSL

Cc1cc2c(cc1C(F)(F)F)NC(=O)CC(c1cccc(Oc3ccccc3)c1)N2 (stereo not shown) [Example 177, 7-Methyl-4-(3-phenoxyphenyl)-8-(trifluoromethyl)-4,5-dihydro-1H-benzo[b][1,4]diazepin-2(3H)-one]
EC50 (mGlu2 receptor; test compound incubated 2.5 min before EC80 glutamate, read-out: mGlu2 EC50 (μM) (2.5 min)): > 10 µM
EC50 (mGlu2 receptor; read-out: mGlu2 EC50 (μM) (60 min), test compound incubated 60 min before EC80 glutamate): > 10 µM
EC50 (mGlu3 receptor): > 10 µM

N[C@@]1(C(=O)O)CO[C@H]2[C@H](C(=O)O)[C@H]21 [LY379268]
phenotype in R6/2 mice (R6/2 mice): dramatically improves the phenotype
GDNF levels in astrocytes [1]: enhanced GDNF levels
spinal cord GDNF levels [2]: enhanced spinal cord GDNF levels
neurological disability in SOD1G93A mice (SOD1G93A mice): beneficial effect on neurological disability
reserpine-induced akinesia after systemic administration (reserpine-treated rat; 0.1, 1, 10 mg/kg ip): did not reverse reserpine-induced akinesia
locomotor activity after intracerebroventricular administration (reserpine-treated rat; 1, 5, 10, 20 nmol/2 μl icv, reserpine (5 mg/kg ip)-treated rat): dose-dependent increase in locomotor activity

N#Cc1cc(C2=Nc3ccc(Br)cc3NC(=O)C2)ccn1 [Example 182, 4-(8-Bromo-2-oxo-2,3-dihydro-1H-benzo[b][1,4]diazepin-4-yl)picolinonitrile]
antidepressant activity in the Forced Swim Test (immobility, swimming) (Male Wistar rats): antidepressant activity by decreasing immobility and increasing swimming
